From US9169252B2 (BRISTOL-MYERS SQUIBB COMPANY, priority 2014, dated 2015)
Read-outs that look alike come from different tables or passages of the source.

Tests used:
[1] = system: TLR2 induced IL-6 in peripheral blood mononuclear cells (PBMCs); assay: PBMC TLR2 Induced IL-6 Assay; assay type: cell-based, human; conditions: IL-6 by ELISA; for EC50: read-out: Cell EC50; for IC50: read-out: Cell IC50
Procedure, shortened: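 Lipoteichoic acid at 10 µg/ml served as TLR2 stimulus for 5 hours, following a 30-minute compound pretreatment at 37° C. Cells were Ficoll-isolated human PBMCs, 250000 cells/well, cultured in RPMI plus 10% heat-inactivated FCS.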

IRAK4 = IRAK4 (Homo sapiens (Human), UniProt Q9NWZ3); assay: IRAK4 Inhibition Assay; assay type: biochemical; conditions: ATP 500 μM, read-out: IRAK4 IC50
Procedure, shortened: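 IRAK4 combined with fluorescent substrate and compounds, reacted 60 min at room temperature, stopped with 35 mM EDTA. Substrate and phosphorylated product separated electrophoretically on a Caliper LabChip 3000 mobility-shift reader.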

[2] = Homo sapiens, PBMC, PBMC TLR2 Induced IL-6 Assay, lipoteichoic acid stimulation
[3] = Homo sapiens, PBMC, human PBMCs, lipoteichoic acid stimulated

IRAK4, sequence (Q9NWZ3 whole entry, species assumed): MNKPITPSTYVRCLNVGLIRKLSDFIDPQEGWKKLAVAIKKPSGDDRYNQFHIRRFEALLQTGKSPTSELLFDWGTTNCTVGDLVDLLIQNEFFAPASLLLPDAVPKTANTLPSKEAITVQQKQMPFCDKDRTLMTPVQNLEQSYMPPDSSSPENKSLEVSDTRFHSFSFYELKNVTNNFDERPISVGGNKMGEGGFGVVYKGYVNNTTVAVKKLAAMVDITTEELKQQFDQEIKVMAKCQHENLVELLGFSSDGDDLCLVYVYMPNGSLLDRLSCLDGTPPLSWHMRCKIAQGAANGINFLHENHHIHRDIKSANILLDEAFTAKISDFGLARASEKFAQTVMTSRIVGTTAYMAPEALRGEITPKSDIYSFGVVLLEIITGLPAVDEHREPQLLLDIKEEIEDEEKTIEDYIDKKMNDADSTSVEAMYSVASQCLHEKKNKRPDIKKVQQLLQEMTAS

SMILES: CC(C)(O)[C@H](F)CNC(=O)c1cnc(-n2ccc3cncnc32)cc1NC1CC1 [Example 41, (R)-4-(cyclopropylamino)-N-(2-fluoro-3-hydroxy-3-methylbutyl)-6-(7H-pyrrolo[2,3-d]pyrimidin-7-yl)nicotinamide]
- EC50 [1, 2]: 220 nM
- IC50 [1, 2]: 220 nM
- IC50 (IRAK4; IRAK4 Inhibition Assay): 1.9 nM

SMILES: COc1cnc(N2CC[C@@H](Nc3cc(-n4ncc5cc(C#N)cnc54)ncc3C(=O)NC[C@@H](F)C(C)(C)O)C2)nc1 [Example 536]
- EC50 [1, 3]: 189 nM
- IC50 (IRAK4; IRAK4 0.6 nM): 8.1 nM

SMILES: C[C@H](CF)Nc1cc(-n2ccc3cc(C#N)cnc32)ncc1C(=O)NCCC(C)(C)O [Example 120, (R)-6-(5-cyano-1H-pyrrolo[2,3-b]pyridin-1-yl)-4-((1-fluoropropan-2-yl)amino)-N-(3-hydroxy-3-methylbutyl)nicotinamide]
- EC50 [1, 2]: 105 nM
- IC50 (IRAK4; IRAK4 Inhibition Assay): 5.1 nM

SMILES: CCn1nnnc1-c1ccc(Nc2cc(-n3ccc4cc(C#N)cnc43)ncc2C(=O)NC[C@@H](F)C(C)(C)O)cc1 [Example 433]
- EC50 [1, 3]: 164 nM
- IC50 [1, 3]: 499 nM
- IC50 (IRAK4; IRAK4 0.6 nM): 4.1 nM

SMILES: CC(C)(O)[C@H](F)CNC(=O)c1cnc(-n2ncc3cc(C#N)cnc32)cc1N[C@H]1CC[C@](C)(O)CC1 [Example 608]
- EC50 [1, 3]: 318 nM
- IC50 (IRAK4; IRAK4 0.6 nM): 12.6 nM

SMILES: CC(C)(O)[C@H]1CC[C@H](NC(=O)c2cnc(-n3ncc4cc(C#N)cnc43)cc2Nc2cnn(CC(F)F)c2)CC1 [Example 396]
- IC50 [1, 3]: 157 nM
- IC50 (IRAK4; IRAK4 0.6 nM): 8.6 nM

SMILES: CC(C)Nc1cc(-n2ncc3cc(C#N)cnc32)ncc1C(=O)Nc1cnn(C2COC2)c1 [Example 268]
- IC50 [1, 2]: 171 nM
- IC50 (IRAK4; IRAK4 Inhibition Assay): 10.6 nM

SMILES: CC(C)(O)[C@H](F)CNC(=O)c1cnc(-n2ncc3cc(C#N)cnc32)cc1NC1CCOCC1 [Example 141, (R)-6-(5-cyano-1H-pyrazolo[3,4-b]pyridin-1-yl)-N-(2-fluoro-3-hydroxy-3-methylbutyl)-4-((tetrahydro-2H-pyran-4-yl)amino)nicotinamide]
- EC50 [1, 2]: 87 nM
- IC50 (IRAK4; IRAK4 Inhibition Assay): 2.2 nM

SMILES: CC(C)Nc1cc(-n2cnc3cnc(N)nc32)ncc1C(=O)NC[C@@H](F)C(C)(C)O [Example 171, (R)-6-(2-Amino-9H-purin-9-yl)-N-(2-fluoro-3-hydroxy-3-methylbutyl)-4-(isopropylamino)nicotinamide]
- EC50 [1, 2]: 208 nM
- IC50 [1, 2]: 587 nM
- IC50 (IRAK4; IRAK4 Inhibition Assay): 3.7 nM

SMILES: CCCNc1cc(-n2ncc3cc(C#N)c(N)nc32)ncc1C(=O)NC[C@@H](F)C(C)(C)O [Example 578]
- IC50 [1, 3]: 218 nM
- IC50 (IRAK4; IRAK4 0.6 nM): 2.6 nM

SMILES: CC(C)Nc1cc(-n2ccc3cc(C#N)cnc32)ncc1C(=O)N[C@H]1CC[C@](O)(c2cccnc2)CC1 [Example 177, 6-(5-cyano-1H-pyrrolo[2,3-b]pyridin-1-yl)-N-((1s,4s)-4-hydroxy-4-(pyridin-3-yl)cyclohexyl)-4-(isopropylamino)nicotinamide]
- EC50 [1, 2]: 352 nM
- IC50 (IRAK4; IRAK4 Inhibition Assay): 3.6 nM

SMILES: CC(C)(O)[C@H](F)CNC(=O)c1cnc(-n2ccc3cc(C#N)cnc32)cc1Nc1cnn(C2CCOCC2)c1 [Example 373]
- IC50 [1, 2]: 71 nM
- IC50 (IRAK4; IRAK4 Inhibition Assay): 2.4 nM

SMILES: CC(C)Nc1cc(-n2ncc3cc(C#N)cnc32)ncc1C(=O)Nc1cnn(CC(F)F)c1 [Example 285]
- IC50 [1, 2]: 200 nM
- IC50 (IRAK4; IRAK4 Inhibition Assay): 10 nM

SMILES: COC(=O)CCNC(=O)c1cnc(-n2ncc3cc(C#N)cnc32)cc1NC(C)C [Example 207]
- EC50 [1, 2]: 227 nM
- IC50 (IRAK4; IRAK4 Inhibition Assay): 10.3 nM

SMILES: CCOC(=O)N1CC(Nc2cc(-n3ncc4cc(C#N)cnc43)ncc2C(=O)NC[C@@H](F)C(C)(C)O)C1 [Example 543]
- IC50 [1, 3]: 404 nM
- IC50 (IRAK4; IRAK4 0.6 nM): 6.8 nM

SMILES: CC(C)Nc1cc(-n2ncc3cc(C#N)cnc32)ncc1C(=O)Nc1ccc(N2CCN(C)CC2)cn1 [Example 241]
- EC50 [1, 2]: 292 nM
- IC50 (IRAK4; IRAK4 Inhibition Assay): 7.3 nM

SMILES: CC(C)Nc1cc(-n2ncc3cc(C#N)cnc32)ncc1C(=O)N[C@@H]1CC[C@@H](C(C)(C)O)OC1 [Example 296]
- IC50 [1, 2]: 412 nM
- IC50 (IRAK4; IRAK4 Inhibition Assay): 7.1 nM

SMILES: CC(C)(O)CNc1cc(-n2ccc3cc(C#N)cnc32)ncc1C(=O)NC[C@@H](F)C(C)(C)O [Example 77, (R)-6-(5-cyano-1H-pyrrolo[2,3-b]pyridin-1-yl)-N-(2-fluoro-3-hydroxy-3-methylbutyl)-4-((2-hydroxy-2-methylpropyl)amino)nicotinamide]
- IC50 [1, 2]: 161 nM
- IC50 (IRAK4; IRAK4 Inhibition Assay): 2.6 nM

SMILES: CC(C)Nc1cc(-n2ncc3cc(C#N)cnc32)ncc1C(=O)NCc1nn[nH]n1 [Example 566]
- EC50 [1, 3]: 637 nM
- IC50 (IRAK4; IRAK4 0.6 nM): 17.2 nM

SMILES: CC(C)(O)[C@H](F)CNC(=O)c1cnc(-n2ccc3cc(C#N)cnc32)cc1Nc1cccc(O)c1 [Example 46, (R)-6-(5-cyano-1H-pyrrolo[2,3-b]pyridin-1-yl)-N-(2-fluoro-3-hydroxy-3-methylbutyl)-4-((3-hydroxyphenyl)amino)nicotinamide]
- EC50 [1, 2]: 23 nM
- IC50 (IRAK4; IRAK4 Inhibition Assay): 2.2 nM

SMILES: CC(C)C(O)CNc1cc(-n2ncc3cc(Cl)cnc32)ncc1C(=O)NC[C@@H](F)C(C)(C)O (single isomer, unassigned) [Example 594]
- IC50 [1, 3]: 319 nM
- IC50 (IRAK4; IRAK4 0.6 nM): 17.5 nM

SMILES: CNC(=O)[C@H](F)CNC(=O)c1cnc(-n2ncc3cc(C#N)cnc32)cc1NC(C)C [Example 229]
- EC50 [1, 2]: 137 nM
- IC50 [1, 2]: 1420 nM
- IC50 (IRAK4; IRAK4 Inhibition Assay): 9.6 nM

SMILES: CC(C)Nc1cc(-n2ccc3cc(C#N)cnc32)ncc1C(=O)NC1CCN(S(C)(=O)=O)CC1 [Example 447]
- EC50 [1, 3]: 92 nM
- IC50 (IRAK4; IRAK4 0.6 nM): 5.3 nM

SMILES: CC(C)Nc1cc(-n2ncc3cc(C#N)cnc32)ncc1C(=O)NCCc1ccncc1 [Example 259]
- IC50 [1, 2]: 102 nM
- IC50 (IRAK4; IRAK4 Inhibition Assay): 2.5 nM

SMILES: CC(C)(O)[C@H](F)CNC(=O)c1cnc(-n2ccc3cc(C#N)cnc32)cc1Nc1ccc(-n2cccn2)cc1 [Example 67]
- EC50 [1, 2]: 102 nM
- IC50 (IRAK4; IRAK4 Inhibition Assay): 1.7 nM

SMILES: CC(C)Nc1cc(-n2ncc3cc(C#N)cnc32)ncc1C(=O)NCC(=O)N1CCOCC1 [Example 206]
- EC50 [1, 2]: 86 nM
- IC50 (IRAK4; IRAK4 Inhibition Assay): 14.4 nM

SMILES: CC[C@@H](CO)Nc1cc(-n2ncc3cc(Cl)cnc32)ncc1C(=O)NC[C@@H](F)C(C)(C)O [Example 589]
- IC50 [1, 3]: 361 nM
- IC50 (IRAK4; IRAK4 0.6 nM): 4.1 nM

SMILES: CC(=O)Nc1cnc2c(ccn2-c2cc(NC(C)C)c(C(=O)NC[C@@H](F)C(C)(C)O)cn2)c1 [Example 45, (R)-6-(5-acetamido-1H-pyrrolo[2,3-b]pyridin-1-yl)-N-(2-fluoro-3-hydroxy-3-methylbutyl)-4-(isopropylamino)nicotinamide]
- EC50 [1, 2]: 148 nM
- IC50 (IRAK4; IRAK4 Inhibition Assay): 23.2 nM

SMILES: CC(C)(O)[C@H](F)CNC(=O)c1cnc(-n2ncc3cc(C#N)cnc32)cc1NC1COC1 [Example 546]
- EC50 [1, 3]: 257 nM
- IC50 (IRAK4; IRAK4 0.6 nM): 3.7 nM

SMILES: CC(C)Nc1cc(-n2ccc3cc(C#N)cnc32)ncc1C(=O)N[C@H]1CC[C@H](S(C)(=O)=O)CC1 [Example 102, 6-(5-Cyano-1H-pyrrolo[2,3-b]pyridin-1-yl)-4-(isopropylamino)-N-((trans)-4-(methylsulfonyl)cyclohexyl)nicotinamide]
- EC50 [1, 2]: 47 nM
- IC50 (IRAK4; IRAK4 Inhibition Assay): 3.6 nM

SMILES: CC(C)(O)[C@H](F)CNC(=O)c1cnc(-n2ncc3cc(C#N)cnc32)cc1N[C@@H]1C[C@H]1CO (single isomer, unassigned) [Example 643]
- IC50 ([1]; human PBMCs, lipoteichoic acid stimulated): 320 nM
- IC50 (IRAK4; IRAK4 0.6 nM): 5.4 nM

SMILES: CC(C)Nc1cc(-n2ccc3cc(C#N)cnc32)ncc1C(=O)NCCCOC(C)C [Example 47, 6-(5-cyano-1H-pyrrolo[2,3-b]pyridin-1-yl)-N-(3-isopropoxypropyl)-4-(isopropylamino) nicotinamide]
- EC50 [1, 2]: 173 nM
- IC50 (IRAK4; IRAK4 Inhibition Assay): 5.6 nM

SMILES: CC(C)Nc1cc(-n2ncc3cc(C#N)c(N)nc32)ncc1C(=O)NC[C@@H](F)C(C)(C)O [Example 262]
- IC50 [1, 2]: 48 nM
- IC50 (IRAK4; IRAK4 Inhibition Assay): 1.3 nM

SMILES: CNC(=O)[C@H]1CC[C@H](NC(=O)c2cnc(-n3ncc4cc(C#N)cnc43)cc2NC(C)C)CC1 [Example 160, 6-(5-cyano-1H-pyrazolo[3,4-b]pyridin-1-yl)-4-(isopropylamino)-N-((trans)-4-(methylcarbamoyl)cyclohexyl)nicotinamide]
- EC50 [1, 2]: 176 nM
- IC50 (IRAK4; IRAK4 Inhibition Assay): 5.8 nM

SMILES: CC(C)Nc1cc(-n2ccc3cc(C#N)cnc32)ncc1C(=O)N[C@H]1CC[C@](F)(c2nccs2)CC1 [Example 180, 6-(5-cyano-1H-pyrrolo[2,3-b]pyridin-1-yl)-N-((1s,4s)-4-fluoro-4-(thiazol-2-yl)cyclohexyl)-4-(isopropylamino)nicotinamide]
- EC50 [1, 2]: 208 nM
- IC50 (IRAK4; IRAK4 Inhibition Assay): 5.3 nM

SMILES: CNC(=O)c1cnc(-n2ncc3cc(C#N)c(N)nc32)cc1NC(C)C [Example 305]
- IC50 [1, 2]: 207 nM
- IC50 (IRAK4; IRAK4 Inhibition Assay): 9.2 nM

SMILES: CC(C)(O)[C@H](F)CNC(=O)c1cnc(-n2ccc3cc(C#N)cnc32)cc1NC1CN(c2ncc(F)cn2)C1 [Example 472]
- EC50 [1, 3]: 70 nM
- IC50 [1, 3]: 123 nM
- IC50 (IRAK4; IRAK4 0.6 nM): 2 nM

SMILES: CC(C)n1cc(Nc2cc(-n3cnc4cc(Cl)cnc43)ncc2C(=O)NC[C@@H](F)C(C)(C)O)cn1 [Example 362]
- IC50 [1, 2]: 486 nM
- IC50 (IRAK4; IRAK4 Inhibition Assay): 4.3 nM

SMILES: CC(C)Nc1cc(-n2ncc3cnc(NC[C@@H](F)C(C)(C)O)nc32)ncc1C(=O)NC[C@@H](F)C(C)(C)O [Example 334]
- EC50 [1, 2]: 460 nM
- IC50 (IRAK4; IRAK4 Inhibition Assay): 18.5 nM

SMILES: [2H]C([2H])([2H])NC(=O)[C@H]1CC[C@H](NC(=O)c2cnc(-n3ncc4cc(C#N)cnc43)cc2NC(C)C)CC1 [Example 162, 6-(5-cyano-1H-pyrazolo[3,4-b]pyridin-1-yl)-4-(isopropylamino)-N-((trans)-4-((^2H3)methylcarbamoyl)cyclohexyl)nicotinamide]
- EC50 [1, 2]: 129 nM
- IC50 (IRAK4; IRAK4 Inhibition Assay): 3.8 nM
